Laboratory results published in patent US6933322B2, “Substituted naphthylenes for the treatment of non-insulin dependent diabetes mellitus” (Wyeth, priority 2002, dated 2005).

Row | SMILES | melting point [°C]
1 | CC(C)(C)c1ccc(-c2ccc(COc3cccc4cc(NS(=O)(=O)C(F)(F)F)ccc34)c(F)c2)cc1 [Example 6, N-[5-(4′-tert-Butyl-3-fluoro-biphenyl-4-ylmethoxy)-naphthalen-2-yl]-C,C,C-trifluoro-methanesulfonamide] | 162 to 164
2 | O=S(=O)(Nc1ccc2c(OCc3ccc(-c4ccc(F)cc4)cc3F)cccc2c1)C(F)(F)F [Example 7, N-[5-(3,4′-Difluoro-biphenyl-4-ylmethoxy)-naphthalen-2-yl]-C,C,C-trifluoro-methanesulfonamide] | 134 to 136
3 | O=S(=O)(Nc1ccc2c(OCc3ccc(-c4ccc(Cl)cc4)cc3F)cccc2c1)C(F)(F)F [Example 8, N-[5-(4′-Chloro-3-fluoro-biphenyl-4-ylmethoxy)-naphthalen-2-yl]-C,C,C-trifluoro-methanesulfonamide] | 151 to 153
4 | COC1(F)C=CC(c2cccc(COc3cccc4cc(NS(=O)(=O)C(F)(F)F)ccc34)c2)=CC1 (stereo not drawn) [Example 12, N-[5-(4′-Fluoro-4′-methoxy-biphenyl-3-ylmethoxy)-naphthalen-2-yl]-C,C,C-trifluoro-methanesulfonamide] | 125 to 127
5 | O=S(=O)(Nc1ccc2c(OCc3ccccc3-c3ccccc3)cccc2c1)C(F)(F)F [Example 19, N-[5-(Biphenyl-2-ylmethoxy)-naphthalen-2-yl]-C,C,C-trifluoromethanesulfonamide] | 119 to 121
6 | COc1ccc(-c2cccc(COc3cccc4cc(NS(=O)(=O)C(F)(F)F)ccc34)c2)cc1 [Example 20, C,C,C-Trifluoro-N-[5-(4′-methoxy-biphenyl-3-ylmethoxy)-naphthalen-2-yl]-methanesulfonamide] | 123 to 125
7 | COc1ccc(-c2ccc(Cl)cc2)cc1COc1cccc2cc(NS(=O)(=O)C(F)(F)F)ccc12 [Example 21, N-[5-(4′-Chloro-4-methoxy-biphenyl-3-ylmethoxy)-naphthalen-2-yl]-C,C,C-trifluoromethanesulfonamide] | 155 to 157
8 | O=S(=O)(Nc1ccc2c(OCc3ccc(-c4ccc(Cl)cc4)cc3)cccc2c1)C(F)(F)F [Example 22, N-[5-(4′-Chloro-biphenyl-4-ylmethoxy)-naphthalen-2-yl]-C,C,C-trifluoromethanesulfonamide] | 131 to 133
9 | Cc1c(COc2cccc3cc(NS(=O)(=O)C(F)(F)F)ccc23)cccc1-c1ccccc1 [Example 23, C,C,C-Trifluoro-N-[5-(2-methyl-biphenyl-3-ylmethoxy)-naphthalen-2-yl]-methanesulfonamide] | 124 to 125
10 | O=S(=O)(Nc1ccc2c(OCc3ccc(-c4ccccn4)cc3)cccc2c1)C(F)(F)F [Example 24, C,C,C-Trifluoro-N-[5-(4-pyridin-2-yl-benzyloxy)-naphthalen-2-yl]-methanesulfonamide] | 119 to 120
11 | COc1ccc(-c2cc(COc3cccc4cc(NS(=O)(=O)C(F)(F)F)ccc34)ccc2F)cc1 [Example 26, C,C,C-Trifluoro-N-[5-(6-fluoro-4′-methoxy-biphenyl-3-ylmethoxy)-naphthalen-2-yl]-methanesulfonamide] | 132 to 133
12 | O=S(=O)(Nc1ccc2c(OCc3ccc(-c4ccccc4)cc3Cl)cccc2c1)C(F)(F)F [Example 29, N-[5-(3-Chloro-biphenyl-4-ylmethoxy)-naphthalen-2-yl]-C,C,C-trifluoro-methanesulfonamide] | 131 to 134
13 | O=S(=O)(Nc1ccc2c(OCc3cccc(-c4ccc(F)cc4)n3)cccc2c1)C(F)(F)F [Example 42, C,C,C-Trifluoro-N-{5-[6-(4-fluoro-phenyl)-pyridin-2-ylmethoxy]-naphthalen-2-yl}-methanesulfonamide] | 173 to 174
14 | O=S(=O)(Nc1ccc2c(OCc3cccc(-c4ccc(C(F)(F)F)cc4)n3)cccc2c1)C(F)(F)F [Example 43, C,C,C-Trifluoro-N-{5-[6-(4-trifluoromethyl-phenyl)-pyridin-2-ylmethoxy]-naphthalen-2-yl}-methanesulfonamide] | 180 to 182
15 | O=S(=O)(Nc1ccc2c(OCc3csc(-c4ccc(Cl)cc4)n3)cccc2c1)C(F)(F)F [Example 44, N-{5-[2-(4-Chloro-phenyl)-thiazol-4-ylmethoxy]-naphthalen-2-yl}-C,C,C-trifluoro-methanesulfonamide] | 151 to 153
16 | O=S(=O)(Nc1ccc2c(OCc3csc(-c4ccc(F)cc4)n3)cccc2c1)C(F)(F)F [Example 45, C,C,C-Trifluoro-N-{5-[2-(4-fluoro-phenyl)-thiazol-4-ylmethoxy]-naphthalen-2-yl}-methanesulfonamide] | 170 to 173
17 | CC(C)(C)c1ccc(-c2nc(COc3cccc4cc(NS(=O)(=O)C(F)(F)F)ccc34)cs2)cc1 [Example 47, N-{5-[2-(4-tert-Butyl-phenyl)-thiazol-4-ylmethoxy]-naphthalen-2-yl}-C,C,C-trifluoro-methanesulfonamide] | 174 to 175
18 | O=S(=O)(Nc1ccc2c(OCc3csc(C4COc5ccccc5O4)n3)cccc2c1)C(F)(F)F (stereo not drawn) [Example 50, N-{5-[2-(2,3-Dihydro-benzo[1,4]dioxin-2-yl)-thiazol-4-ylmethoxy]-naphthalen-2-yl}-C,C,C-trifluoro-methanesulfonamide] | 183 to 185
19 | O=S(=O)(Nc1ccc2c(OCc3csc(-c4ccccc4)n3)cccc2c1)C(F)(F)F [Example 51, C,C,C-Trifluoro-N-[5-(2-phenyl-thiazol-4-ylmethoxy)-naphthalen-2-yl]-methanesulfonamide] | 89 to 99
20 | O=S(=O)(Nc1ccc2c(OCc3csc(-c4ccccc4Cl)n3)cccc2c1)C(F)(F)F [Example 54, N-{5-[2-(2-Chloro-phenyl)-thiazol-4-ylmethoxy]-naphthalen-2-yl}-C,C,C-trifluoromethanesulfonamide] | 128 to 129
21 | O=S(=O)(Nc1ccc2c(OCc3csc(-c4ccc(OC(F)(F)F)cc4)n3)cccc2c1)C(F)(F)F [Example 55, C,C,C-Trifluoro-N-{5-[2-(4-trifluoromethoxy-phenyl)-thiazol-4-yl-methoxy]-naphthalen-2-yl}-methanesulfonamide] | 131 to 132
22 | O=S(=O)(Nc1ccc2c(OCc3nc(-c4ccc(F)cc4)sc3Br)cccc2c1)C(F)(F)F [Example 56, N-{5-[5-Bromo-2-(4-fluoro-phenyl)-thiazol-4-ylmethoxy]-naphthalen-2-yl}-C,C,C-trifluoromethanesulfonamide] | 139 to 140
23 | CC(C)(C)c1ccc(C2(COc3cccc4cc(NS(=O)(=O)C(F)(F)F)ccc34)N=CNO2)cc1 (stereo not drawn) [Example 59, N-{5-[5-(4-tert-Butyl-phenyl)-[1,2,4]-oxadiazol-5-ylmethoxy)-naphthalen-2-yl}-C,C,C-trifluoro-methanesulfonamide] | 154 to 155
24 | O=S(=O)(Nc1ccc2c(OCc3noc(C45CC6CC(CC(C6)C4)C5)n3)cccc2c1)C(F)(F)F [Example 60, N-[5-(5-Adamantan-1-yl-[1,2,4]oxadiazol-3-ylmethoxy)-naphthalen-2-yl]-C,C,C-trifluoro-methanesulfonamide] | 60 to 62
